Results on 5 compounds are retold here after ChEMBL document CHEMBL1153768, “New potential AChE inhibitor candidates” (Eur J Med Chem, 2009).

Experiment [1] concerns the target Acetylcholinesterase (Electrophorus electricus) (UniProt O42275). Kind of experiment: (§1) Inhibition of Electrophorus electricus AChE.
The target of another experiment is Acetylcholinesterase (Electrophorus electricus, UniProt O42275). Described as §1.
Experiment [2] has as its target Acetylcholinesterase (Electrophorus electricus) (UniProt O42275). In words: Inhibition of Electrophorus electricus AChE at 100 uM.

Structures are written as SMILES.

Chain of Acetylcholinesterase (Electrophorus electricus) (O42275 24-633 limits assumed): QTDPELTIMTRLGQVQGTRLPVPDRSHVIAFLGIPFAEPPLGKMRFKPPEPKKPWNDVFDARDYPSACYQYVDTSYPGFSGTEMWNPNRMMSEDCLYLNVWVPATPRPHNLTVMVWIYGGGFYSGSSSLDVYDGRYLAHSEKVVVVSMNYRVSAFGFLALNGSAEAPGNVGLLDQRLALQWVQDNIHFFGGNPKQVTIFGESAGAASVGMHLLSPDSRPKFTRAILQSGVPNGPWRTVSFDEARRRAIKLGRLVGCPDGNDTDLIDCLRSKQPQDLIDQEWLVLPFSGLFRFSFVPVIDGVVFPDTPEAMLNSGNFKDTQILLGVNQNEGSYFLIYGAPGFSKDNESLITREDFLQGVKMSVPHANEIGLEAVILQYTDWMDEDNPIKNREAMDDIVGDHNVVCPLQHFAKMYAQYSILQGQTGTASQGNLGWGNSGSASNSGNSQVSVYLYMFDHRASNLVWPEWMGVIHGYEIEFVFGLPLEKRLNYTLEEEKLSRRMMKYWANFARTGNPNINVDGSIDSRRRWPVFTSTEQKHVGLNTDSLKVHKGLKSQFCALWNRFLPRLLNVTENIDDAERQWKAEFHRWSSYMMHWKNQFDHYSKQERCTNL
Chain of Acetylcholinesterase (O42275 whole entry): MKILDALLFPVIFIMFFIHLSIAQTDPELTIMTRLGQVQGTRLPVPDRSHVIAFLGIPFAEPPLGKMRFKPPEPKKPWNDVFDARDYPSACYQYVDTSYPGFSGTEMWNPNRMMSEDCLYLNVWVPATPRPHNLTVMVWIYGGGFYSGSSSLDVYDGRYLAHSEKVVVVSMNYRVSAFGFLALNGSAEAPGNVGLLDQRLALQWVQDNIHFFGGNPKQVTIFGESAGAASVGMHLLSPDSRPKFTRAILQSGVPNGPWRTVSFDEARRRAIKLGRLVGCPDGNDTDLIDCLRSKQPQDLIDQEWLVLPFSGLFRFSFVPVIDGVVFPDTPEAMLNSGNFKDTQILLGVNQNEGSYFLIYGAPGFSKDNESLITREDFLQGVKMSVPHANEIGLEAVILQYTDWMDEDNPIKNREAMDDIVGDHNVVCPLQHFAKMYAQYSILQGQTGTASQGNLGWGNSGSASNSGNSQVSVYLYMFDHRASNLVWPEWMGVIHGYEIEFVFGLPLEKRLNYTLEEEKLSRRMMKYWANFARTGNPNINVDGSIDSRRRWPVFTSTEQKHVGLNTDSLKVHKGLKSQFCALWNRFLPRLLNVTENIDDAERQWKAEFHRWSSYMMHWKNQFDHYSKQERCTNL

`CCCCCCCCCCCCCCC(c1cccc(OC(=O)N(C)C)c1)N(C)C` (stereo not drawn): the inhibition (as a rule, the share of the control response that was lost under treatment) in experiment [1] was “Dose-dependent effect”. The midpoint of inhibition against Acetylcholinesterase, the IC50, lay at 50 µM. Regarding `CCCCCCCCCCCCCCC(c1cccc(OC(=O)N(C)C)c1)N(CC)CC` (stereo not drawn), the inhibition result in experiment [1] was “Dose-dependent effect”. Moreover, the IC50 (usually the concentration that gives 50% inhibition) against Acetylcholinesterase was determined as 251 µM. Regarding `CCCCCCCCCCCCCCC(c1cccc(OC(=O)N(C)C)c1)N1CCCC1` (stereo not drawn), the inhibition entry in experiment [1] was “Dose-dependent effect”. Besides, the midpoint of inhibition against Acetylcholinesterase, the IC50, lay at 84.3 µM. On to `CCCCCCCCCCCCCCC(c1cccc(OC(=O)N(C)C)c1)N1CCCCC1` (stereo not drawn), for which the inhibition in experiment [2] is 25%. On the same count and under the same terms, then `CCCCCCCCCCCCCCC(c1cccc(OC(=O)N(C)C)c1)N(C)Cc1ccccc1` (stereo not drawn), with 25%.
